Here are results for 32 compounds from PMC11125953 (Viruses, 2024).

Where a name gives a salt, the structure may show the parent alone. Read-outs that look alike come from different tables or passages of the source. Bounds are passed on as bounds.

The subject of series [1] is EHV-4 405/76 reference strain. As to the kind of experiment: RTCA. The conditions noted are these: for AUCn: area under normalized Cell Index curves, 0-120 hpi, EHV-4-infected E. Derm cells. The class given is cell-based, Equid herpesvirus 4.
Series [2] concerns EHV-4 405/76 reference strain. The conditions noted are these: ratio of CC50 to EC50 obtained by RTCA.
Series [3] can be described thus: in vitro. To be noted: horse.
The nature of series [4]: in vitro. To be noted: horse. The source holds these as a separate data set.
In series [5] the test system is EHV-4 405/76 reference strain. As to the kind of experiment: microbe, parasite or virus in culture.
The subject of series [6] is EHV-4 405/76 reference strain. Briefly: microbe, parasite or virus in culture. This is another data set of the same source.
[7] abbreviates: Equid alphaherpesvirus 4, 120 h, read-out: %AUCn.

As to `C[C@@]1(O)[C@H](O)[C@@H](CO)O[C@H]1n1ccc(N)nc1=O` [2′-C-methylcytidine], the AUCn was 37.52 in series [1] (0.4 µM), 35.13 in series [1] (2 µM), 26.93 in series [1] (10 µM) and 30.32 in series [1] (50 µM).
For `O=c1[nH]cc(F)c(=O)[nH]1` [5-fluorouracil], in that order: 39.89, 31.41, 31.13 and 36.75.
For `Sc1ncnc2nc[nH]c12` [6-mercaptopurine], in that order: 39.53, 37.02, 28.97 and 27.72.
Taken in the same sequence, the figures for `Nc1nc2nc[nH]c2c(=S)[nH]1` [6-thioguanine] were 37.89, 38.05, 34.04 and 29.32.
For `C[C@H](CCCC(C)(C)O)[C@H]1CC[C@H]2[C@@H]3CC=C4C[C@@H](O)CC[C@]4(C)[C@H]3CC[C@]12C` [25-hydroxycholesterol], the AUCn in series [1] (0.4 µM) is listed as 39.29; in series [1] (2 µM) it was 34.81; in series [1] (10 µM) it was 29.79; in series [1] (50 µM), 31.86.
For `Nc1nc(NC2CC2)c2ncn([C@H]3C=C[C@@H](CO)C3)c2n1` [Abacavir sulfate], in that order: 38.16, 32.21, 31.76 and 32.99.
Taken in the same sequence, the figures for `CC(C)(C)C(=O)OCOP(=O)(COCCn1cnc2c(N)ncnc21)OCOC(=O)C(C)(C)C` [Adefovir dipivoxil] were 99.92, 93.75, 73.47 and 39.70.
Taken in the same sequence, the figures for `CCOC(=O)c1c(CSc2ccccc2)n(C)c2cc(Br)c(O)c(CN(C)C)c12` [Arbidol] were 31.88, 39.33, 37.59 and 35.06.
Consider `O=c1[nH]c(=O)n([C@H]2C[C@H](O)[C@@H](CO)O2)cc1/C=C/Br` [Brivudine], for which the AUCn in series [1] (0.4 µM) is recorded as 28.13; in series [1] (2 µM), 30.37; in series [1] (10 µM), 31.74; in series [1] (50 µM) it was 36.82.
Taken in the same sequence, the figures for `CCCCCOC(=O)Nc1nc(=O)n([C@@H]2O[C@H](C)[C@@H](O)[C@H]2O)cc1F` [Capecitabine] were 35.92, 36.42, 36.13 and 33.97.
As to `Nc1ccn([C@@H]2O[C@H](CO)[C@@H](O)[C@@H]2O)c(=O)n1` [Cytarabine], the AUCn in series [1] (0.4 µM) was 28.59; in series [1] (2 µM), 32.46; in series [1] (10 µM), 91.79; in series [1] (50 µM), 91.89.
Consider `Cc1ccc2c(=O)c3cccc(CC(=O)O)c3oc2c1C` [DMXAA], for which the AUCn was 36.50 in series [1] (0.4 µM), 37.99 in series [1] (2 µM), 41.23 in series [1] (10 µM) and 60.10 in series [1] (50 µM).
For `O=c1[nH]cnc2c1ncn2[C@H]1CC[C@@H](CO)O1` [Didanosine], in that order: 37.77, 36.23, 29.27 and 38.91.
Taken in the same sequence, the figures for `O=C(N/N=C/c1ccc(O)c(O)c1)c1cc2ccccc2cc1O` [Dynasore] were 13.10, 13.81, 18.85 and 23.18.
Consider `NCCCC(N)(C(=O)O)C(F)F` (stereo not shown) [Eflornithin (dfmo), Eflornithin], for which the AUCn in series [1] (0.4 µM) is given as 44.63; in series [1] (2 µM) it was 32.10; in series [1] (10 µM), 30.27; in series [1] (50 µM), 32.46.
Turning to `Nc1nc(=O)n([C@@H]2CS[C@H](CO)O2)cc1F` [Emtricitabine], the AUCn in series [1] (0.4 µM) was found to be 36.81; in series [1] (2 µM), 35.47; in series [1] (10 µM), 34.12; in series [1] (50 µM) it was 37.28.
For `CC(=O)OCC(CCn1cnc2cnc(N)nc21)COC(C)=O` [Famciclovir], in that order: 39.12, 34.29, 36.03 and 37.57.
For `NC(=O)c1nc(F)c[nH]c1=O` [Favipiravir], in that order: 30.35, 41.18, 37.23 and 74.44.
For the compound `CC(C)n1c(/C=C/C(O)CC(O)CC(=O)O)c(-c2ccc(F)cc2)c2ccccc21` (stereo not shown) [Fluvastatin], the AUCn came out at 33.08 in series [1] (0.4 µM), 16.45 in series [1] (2 µM), 11.66 in series [1] (10 µM) and 13.86 in series [1] (50 µM).
In turn, `O=c1c(-c2ccc(O)cc2)coc2cc(O)cc(O)c12` [Genistein] registered an AUCn in series [1] (0.4 µM) of 11.7. This compound also had an AUCn in series [1] (2 µM) of 12.8. Further, in series [1] (10 µM), the AUCn stood at 13.3. Moreover, the AUCn in series [1] (50 µM) was 11.8. Further, in series [1] (setting [7]), the activation at 0.4 µM is -17.5%, the activation at 2 µM was -9.65%, the activation at 10 µM was -6.34% and the activation at 50 µM is -16.7%.
On to `CC(C)Nc1nc2cc(Cl)c(Cl)cc2n1[C@H]1O[C@@H](CO)[C@H](O)[C@@H]1O` [Maribavir], for which the AUCn in series [1] (0.4 µM) is 33.80; in series [1] (2 µM) it was 34.21; in series [1] (10 µM), 32.99; in series [1] (50 µM), 45.42.
As to `COc1nc(N)nc2c1ncn2[C@@H]1O[C@H](CO)[C@@H](O)[C@@H]1O` [Nelarabine], the AUCn is recorded as 33.26 in series [1] (0.4 µM), 32.33 in series [1] (2 µM), 30.63 in series [1] (10 µM) and 40.34 in series [1] (50 µM).
In the case of `Nc1nc2c(ncn2CCC(CO)CO)c(=O)[nH]1` [Penciclovir], the AUCn in series [1] (0.4 µM) is recorded as 36.54; in series [1] (2 µM), 33.23; in series [1] (10 µM) it was 30.15; in series [1] (50 µM) it was 42.37.
For `CC[C@H](C)C(=O)O[C@H]1C[C@H](O)C=C2C=C[C@H](C)[C@H](CC[C@@H](O)C[C@@H](O)CC(=O)O)[C@H]21` [Pravastatin], in that order: 45.23, 36.52, 37.85 and 30.29.
For the compound `[H]/N=C(\N/C(=N/[H])Nc1ccc(Cl)cc1)NC(C)C` [Proguanil hydrochloride], the AUCn in series [1] (0.4 µM) is 34.82; in series [1] (2 µM) it was 36.10; in series [1] (10 µM) it was 38.33; in series [1] (50 µM), 59.56.
For `CCC(C)(C)C(=O)O[C@H]1C[C@@H](C)C=C2C=C[C@H](C)[C@H](CC[C@@H]3C[C@@H](O)CC(=O)O3)[C@H]21` [Simvastatin], in that order: 34.65, 32.56, 24.99 and 20.58.
Take `CC(C)OC(=O)[C@H](C)N[P@](=O)(OC[C@H]1O[C@@H](n2ccc(=O)[nH]c2=O)[C@](C)(F)[C@@H]1O)Oc1ccccc1` [Sofosbuvir]: the AUCn came to 35.31 in series [1] (0.4 µM), 33.28 in series [1] (2 µM), 34.01 in series [1] (10 µM) and 35.76 in series [1] (50 µM).
As for `Cc1cn([C@H]2C=C[C@@H](CO)O2)c(=O)[nH]c1=O` [Stavudine], the AUCn in series [1] (0.4 µM) was 37.85; in series [1] (2 µM) it was 32.94; in series [1] (10 µM), 32.23; in series [1] (50 µM), 30.20.
For `Cc1cn([C@@H]2C[C@@H](O)[C@H](CO)O2)c(=O)[nH]c1=O` [Telbivudine], in that order: 30.51, 35.43, 31.31 and 39.04.
For `CC(C)OC(=O)OCOP(=O)(CO[C@H](C)Cn1cnc2c(N)ncnc21)OCOC(=O)OC(C)C` [Tenofovir disoproxil], in that order: 34.89, 43.49, 93.87 and 52.88.
Taken in the same sequence, the figures for `CC(C)[C@H](N)C(=O)OCCOCn1cnc2c(=O)[nH]c(N)nc21` [Valaciclovir] were 33.27, 28.12, 27.99 and 42.38.
As for `Nc1ncnc2c1ncn2[C@@H]1O[C@H](CO)[C@@H](O)[C@@H]1O` [Vidarabine], the AUCn in series [1] (0.4 µM) is 41.3; in series [1] (2 µM), 35.7; in series [1] (10 µM), 48.7; in series [1] (50 µM) it was 71.5. In addition, the “Si (CC50/EC50, RTCA)” value in series [2] was above 2.94. The CC50 in the series “in vitro [3]” and in “in vitro [4]” was above 50 µM in each case. Further, the EC50 in series [5] (Equid alphaherpesvirus 4, read-out: RTCA EC50 (µM ± S.D)) is 17 ± 4.5 µM; in series [5] (Equid alphaherpesvirus 4, read-out: RTCA EC50 (µg/mL ± S.D)) it was 4.85 ± 1.28 µg/mL; in series [6] (Equid alphaherpesvirus 4, read-out: qPCR EC50 (µM ± S.D)), 13.7 ± 1.92 µM; in series [6] (Equid alphaherpesvirus 4, read-out: qPCR EC50 (µg/mL ± S.D)) it was 3.91 ± 0.55 µg/mL.
